Like-named read-outs stand apart in the source and are kept apart here.
Experiments:
[1] = tested on: nuOXPHOS transcripts; type: cell-based, mouse; conditions: Conc 20 μM; for nucOX (composite Z-score): normalized score vs mock-treated (DMSO) wells
[2] = tested on: cellular dehydrogenase activity; conditions: Conc 20 μM; for MTT (composite Z-score): normalized score vs mock-treated (DMSO) wells
[3] = tested on: OXPHOS gene expression; type: cell-based, mouse; conditions: Conc 20 μM; for GE-HTS (composite Z-score): normalized score vs mock-treated (DMSO) wells
[4] = tested on: C2C12 myotubes; conditions: Conc 20 μM; for Viability (composite Z-score): normalized score vs mock-treated (DMSO) wells
[5] = tested on: reactive oxygen species; type: cell-based, mouse; conditions: Conc 20 μM; for ROS (composite Z-score): normalized score vs mock-treated (DMSO) wells
[6] = tested on: mtOXPHOS transcripts; type: cell-based, mouse; conditions: Conc 20 μM; for mitoOX (composite Z-score): normalized score vs mock-treated (DMSO) wells
[7] = tested on: mitochondrial membrane potential; type: cell-based, mouse; conditions: Conc 20 μM; for ΔΨm (composite Z-score): normalized score vs mock-treated (DMSO) wells
[8] = tested on: cytochrome c; type: cell-based, mouse; conditions: for cyt c (composite Z-score): normalized score vs mock-treated (DMSO) wells
[9] = normalized composite Z-score vs mock-treated (DMSO) wells
[10] = normalized composite Z-score vs mock-treated (DMSO) wells, Conc 20 μM
[11] = composite Z-score vs DMSO, Conc 20 μM
[12] = composite Z-score vs mock-treated (DMSO) wells
[13] = composite Z-score vs DMSO wells

SMILES: C[C@H](CCC(=O)O)[C@H]1CC[C@H]2[C@@H]3CCC4CCCC[C@]4(C)[C@H]3C=C[C@]12C (stereo partly shown) [chol-11-enic acid]
- nucOX [1, 9]: −0.195
- MTT [2, 9]: −1.164
- GE-HTS [3, 9]: −0.069
- Viability [4, 9]: −0.456
- ROS [5, 9]: 0.737
- mitoOX [6, 9]: 0.246
- ΔΨm [7, 9]: −0.652
- cyt c [8, 10]: 0.383

SMILES: CC(C)CCC[C@@H](C)[C@H]1CC[C@H]2[C@@H]3C[C@@H](O)[C@@]4(O)C[C@@H](O)CC[C@]4(C)[C@H]3CC[C@]12C [cholestan-3beta,5alpha,6beta-triol]
- nucOX (composite Z-score) [1]: 0.523
- MTT (composite Z-score) [2]: 0.120
- GE-HTS (composite Z-score) [3]: 0.382
- Viability (composite Z-score) [4]: −0.869
- ROS (composite Z-score) [5]: 1.000
- mitoOX (composite Z-score) [6]: 0.074
- ΔΨm (composite Z-score) [7]: −0.575
- cyt c (composite Z-score) ([8]; Conc 20 μM): 0.815

SMILES: CC(C)CCC[C@@H](C)[C@H]1CC[C@H]2[C@@H]3CCC4CCCC[C@]4(C)[C@H]3CC[C@]12C (stereo partly shown) [cholestane]
- nucOX ([1]; composite Z-score vs DMSO): −0.651
- MTT ([2]; composite Z-score vs DMSO): −1.057
- GE-HTS ([3]; composite Z-score vs DMSO): −0.678
- Viability ([4]; composite Z-score vs DMSO): 0.941
- ROS ([5]; composite Z-score vs DMSO): 0.155
- mitoOX ([6]; composite Z-score vs DMSO): −0.640
- ΔΨm ([7]; composite Z-score vs DMSO): −0.945
- cyt c [8, 11]: 0.043

SMILES: CC(C)CCC[C@@H](C)C1CC[C@H]2[C@@H]3CCC4CC(=O)CC[C@]4(C)[C@H]3CC[C@]12C (stereo partly shown) [cholestanone]
- nucOX (composite Z-score) [1]: 0.147
- MTT (composite Z-score) [2]: −2.192
- GE-HTS (composite Z-score) [3]: 0.165
- Viability (composite Z-score) [4]: −0.208
- ROS (composite Z-score) [5]: 1.864
- mitoOX (composite Z-score) [6]: 0.214
- ΔΨm (composite Z-score) [7]: −1.065
- cyt c (composite Z-score) ([8]; Conc 20 μM): 0.272

SMILES: CC(=O)O[C@H]1CC[C@@]2(C)C(=CC[C@H]3[C@@H]4CC[C@H]([C@H](C)CCCC(C)C)[C@@]4(C)CC[C@@H]32)C1 [cholesteryl acetate]
- nucOX ([1]; composite Z-score vs DMSO): 0.273
- MTT ([2]; composite Z-score vs DMSO): −2.138
- GE-HTS ([3]; composite Z-score vs DMSO): 0.228
- Viability ([4]; composite Z-score vs DMSO): −1.471
- ROS ([5]; composite Z-score vs DMSO): 0.524
- mitoOX ([6]; composite Z-score vs DMSO): 0.142
- ΔΨm ([7]; composite Z-score vs DMSO): −0.657
- cyt c [8, 11]: 0.097

SMILES: COC(=O)CC[C@@H](C)[C@H]1CC[C@H]2[C@@H]3[C@H](O)C[C@@H]4C[C@H](O)CC[C@]4(C)[C@H]3C[C@H](O)[C@]12C [cholic acid, methyl ester]
- nucOX [1, 9]: −0.852
- MTT [2, 9]: −1.021
- GE-HTS [3, 9]: −0.751
- Viability [4, 9]: −0.383
- ROS [5, 9]: 0.295
- mitoOX [6, 9]: −0.394
- ΔΨm [7, 9]: 0.065
- cyt c [8, 10]: 0.018

SMILES: N[C@H]1C(O)O[C@H](CO)[C@H](O)[C@@H]1O[C@@H]1O[C@H](C(=O)O)[C@@H](O)[C@H](O)[C@H]1O (stereo partly shown) [chondrosine]
- nucOX ([1]; composite Z-score vs DMSO): −0.782
- MTT ([2]; composite Z-score vs DMSO): −1.759
- GE-HTS ([3]; composite Z-score vs DMSO): −0.743
- Viability ([4]; composite Z-score vs DMSO): −0.800
- ROS ([5]; composite Z-score vs DMSO): 0.741
- mitoOX ([6]; composite Z-score vs DMSO): −0.476
- ΔΨm ([7]; composite Z-score vs DMSO): −1.001
- cyt c [8, 11]: 0.040

SMILES: CC1OC(OC2C(O)COC(OC3C(C)OC(OC4C(OC(=O)C56CCC(C)(C)CC5C5=CCC7C8(C)CCC(OC9OC(CO)C(O)C(O)C9O)C(C)(C)C8CCC7(C)C5(C)CC6O)OCC(O)C4O)C(O)C3O)C2O)C(O)C(O)C1O (stereo not shown) [chrysanthellin A]
- nucOX [1, 9]: −0.394
- MTT [2, 9]: −4.661
- GE-HTS [3, 9]: −0.126
- Viability [4, 9]: −4.075
- ROS [5, 9]: −1.565
- mitoOX [6, 9]: 0.474
- ΔΨm [7, 9]: −1.860
- cyt c [8, 10]: −4.088

SMILES: CC(C)=CC1C(CO)C1(C)C (stereo not shown) [chrysanthemyl alcohol]
- nucOX [1, 9]: 0.495
- MTT [2, 9]: −0.004
- GE-HTS [3, 9]: 0.456
- Viability [4, 9]: 0.604
- ROS [5, 9]: 0.345
- mitoOX [6, 9]: 0.331
- ΔΨm [7, 9]: −0.734
- cyt c [8, 10]: 0.264

SMILES: Cc1cc(O)c2c(O)c3c(O)cccc3cc2c1 [chrysarobin]
- nucOX [1, 12]: −1.387
- MTT [2, 12]: −1.646
- GE-HTS [3, 12]: −1.153
- Viability [4, 12]: −0.685
- ROS [5, 12]: 0.805
- mitoOX [6, 12]: −0.401
- ΔΨm [7, 12]: −0.726
- cyt c ([8]; composite Z-score vs mock-treated (DMSO) wells, Conc 20 μM): −0.074

SMILES: COc1cc(OC)c2c(=O)cc(-c3ccccc3)oc2c1 [chrysin dimethyl ether]
- nucOX (composite Z-score) [1]: 0.444
- MTT (composite Z-score) [2]: −1.043
- GE-HTS (composite Z-score) [3]: 0.480
- Viability (composite Z-score) [4]: −0.006
- ROS (composite Z-score) [5]: 1.158
- mitoOX (composite Z-score) [6]: 0.470
- ΔΨm (composite Z-score) [7]: 0.541
- cyt c (composite Z-score) ([8]; Conc 20 μM): −1.016

SMILES: O=c1cc(-c2ccccc2)oc2cc(O)cc(O)c12 [chrysin]
- nucOX [1, 13]: 0.071
- MTT [2, 13]: −1.566
- GE-HTS [3, 13]: −0.137
- Viability [4, 13]: −0.802
- ROS [5, 13]: 0.949
- mitoOX [6, 13]: −0.552
- ΔΨm [7, 13]: −0.941
- cyt c [8]: 0.920
- cyt c ([8]; composite Z-score vs DMSO wells, Conc 20 μM): 0.655
